Experimental data: US20050171350A1, “Benzhydryl derivatives” (Fujisawa Pharamaceutical Co., Ltd., priority 2001, published 2005)

test system: emesis in the dog; assay: Emesis in the Dog (apomorphine-induced retching and vomiting); format: in vivo; details: adult female dogs; test compound i.v. at the dose of 1.0 mg/kg; 5 min later subcutaneous apomorphine (0.1 mg/0.5 ml/kg); observed for 60 min
Procedure: Individually housed adult female dogs (8 to 15 kg) were given an i.v. injection of a solution containing a test compound. 5 Min later the emetic responses (retching and vomiting) were induced by administration of subcutaneous apomorphine (0.1 mg/0.5 ml/kg) and observed for the next 60 min. The timing and number of retches and vomits observed were recorded for each animal. An individual animal was tested with at least 10 days between experiments.

Structure (SMILES) | inhibition rate of emesis in the dog
COc1nc(OC)c(CN2C[C@@H]3CN(C(=O)CO)CCN3[C@H](C(c3ccccc3)c3ccccc3)C2)c(OC)n1.Cl.Cl [Example 1, 2-[(6R, 9aR)-6-benzhydryl-8-[(2,4,6-trimethoxy-5-pyrimidinyl)methyl]octahydro-2H-pyrazino[1,2-a]pyrazin-2-yl]-2-oxoethanol dihydrochloride] | 100%

test system: not given; assay: not given; details: not given

melting point | Structure (SMILES)
150 to 155 °C (dec.) | COc1nc(Cl)nc(OC)c1CN1C[C@@H]2CN(C(=O)CO)CCN2[C@H](C(c2ccccc2)c2ccccc2)C1.Cl.Cl
139 to 143 °C | COc1nc(OC)c(CN2C[C@@H]3CN(C(=O)N4CCOCC4)CCN3[C@H](C(c3ccccc3)c3ccccc3)C2)c(OC)n1.Cl.Cl
174 to 177 °C | COc1nc(C)c(CN2C[C@@H]3CN(C(=O)CO)CCN3[C@H](C(c3ccccc3)c3ccccc3)C2)c(OC)n1.Cl.Cl
143 to 147 °C | COc1nc(OC)c(CN2C[C@@H]3CN(C(=O)c4cccnc4)CCN3[C@H](C(c3ccccc3)c3ccccc3)C2)c(OC(C)C)n1.Cl.Cl.Cl
141 to 145 °C | COc1nc(OC)c(CN2C[C@@H]3CN(C(=O)CO)CCN3[C@H](C(c3ccccc3)c3ccccc3)C2)c(OC2CCC2)n1.Cl.Cl
98 to 101 °C (dec.) | COc1nc(Cl)c(CN2C[C@@H]3CN(C(=O)CO)CCN3[C@H](C(c3ccccc3)c3ccccc3)C2)c(OC)n1.Cl.Cl
129 to 132 °C | COc1nc(C)nc(OC)c1CN1C[C@@H]2CN(C(=O)CO)CCN2[C@H](C(c2ccccc2)c2ccccc2)C1.Cl.Cl
155 to 158 °C (dec.) | COc1nc(OC)c(CN2C[C@@H]3CN(C(=O)CO)CCN3[C@H](C(c3ccccc3)c3ccccc3)C2)c(OC)n1.Cl.Cl [Example 1, 2-[(6R, 9aR)-6-benzhydryl-8-[(2,4,6-trimethoxy-5-pyrimidinyl)methyl]octahydro-2H-pyrazino[1,2-a]pyrazin-2-yl]-2-oxoethanol dihydrochloride]
143 to 146 °C | COc1nc(OC)c(CN2C[C@@H]3CN(C(=O)CO)CCN3[C@H](C(c3ccccc3)c3ccccc3)C2)c(OCC(F)F)n1.Cl.Cl
145 to 148 °C (dec.) | COc1nc(OC)c(CN2C[C@@H]3CN(C(=O)CO)CCN3[C@H](C(c3ccccc3)c3ccccc3)C2)c(OC(C)C)n1.Cl.Cl
150 to 152 °C (dec.) | CCOc1nc(OC)nc(OC)c1CN1C[C@@H]2CN(C(=O)CO)CCN2[C@H](C(c2ccccc2)c2ccccc2)C1.Cl.Cl
